According to patent US20260258064A1 (SIRONAX LTD., priority 2023, published 2026):

Biological target: T1, SARM1 (50-724) (Homo sapiens, UniProt Q6SZW1)
T1 construct: Purified SARM1 (50-724) with a final concentration of 2 nM was pre-incubated with a test compound
T1 sequence (Q6SZW1 50-724): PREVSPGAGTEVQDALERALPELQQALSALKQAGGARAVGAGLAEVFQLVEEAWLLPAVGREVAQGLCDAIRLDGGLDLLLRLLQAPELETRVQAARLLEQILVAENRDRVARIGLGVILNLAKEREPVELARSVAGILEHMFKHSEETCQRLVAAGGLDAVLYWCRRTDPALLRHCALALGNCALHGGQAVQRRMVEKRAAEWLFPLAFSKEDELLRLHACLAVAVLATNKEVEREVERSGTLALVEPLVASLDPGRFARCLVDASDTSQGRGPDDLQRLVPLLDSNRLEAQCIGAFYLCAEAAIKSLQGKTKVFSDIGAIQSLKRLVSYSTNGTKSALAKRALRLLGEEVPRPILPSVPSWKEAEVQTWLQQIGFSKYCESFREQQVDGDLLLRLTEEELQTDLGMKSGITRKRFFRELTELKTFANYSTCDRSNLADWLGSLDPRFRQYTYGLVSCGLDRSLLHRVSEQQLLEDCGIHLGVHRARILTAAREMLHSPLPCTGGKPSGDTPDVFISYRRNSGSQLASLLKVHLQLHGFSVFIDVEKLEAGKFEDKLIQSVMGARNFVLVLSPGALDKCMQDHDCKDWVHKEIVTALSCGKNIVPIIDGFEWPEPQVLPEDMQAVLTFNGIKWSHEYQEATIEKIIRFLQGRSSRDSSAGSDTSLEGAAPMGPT
Test: SARM1 (50-724) enzymatic assay (LC-MS/MS)
Format: biochemical
Conditions: Purified SARM1 (50-724) 2 nM, NMN as activator, NAD+ as substrate, 1 h at room temperature, read-out: IC50 (SARM1 inhibitory activity)
Protocol: An enzymatic assay was performed in a 384-well plate using Dulbecco's phosphate-buffered saline (PBS) as the reaction buffer. Purified SARM1 (50-724) with a final concentration of 2 nM was pre-incubated with a test compound at […] final assay concentration for 15 min at room temperature. The reaction was initiated by adding a mixture of […] nicotinamide mononucleotide (NMN) as activator and […] NAD^+ as substrate. After 1 h of incubation at room temperature, the reaction was terminated with 10 times volume of 70% acetonitrile, and then centrifuged at 3800 rpm for 10 min. The samples were analyzed using LC-MS/MS after diluted to a proper concentration by 10 mM ammonium acetate (pH 9.75).
In Table 2, activity is provided as follows: A: IC50≤100 nM; B: 100 nM<IC50≤500 nM; C: 500 nM<IC50≤1000 nM; D: IC50>1000 nM.

`Cc1ccc2[nH]c(-c3ccc(C#N)n3C3CCCC3)nc2c1` [Compound 19, 1-cyclopentyl-5-(5-methyl-1H-1,3-benzodiazol-2-yl)pyrrole-2-carbonitrile] was tested, and the IC50 was 100 to 500 nM.

Work on `Cc1ccc2[nH]c(-c3cc(C(N)=O)cn3C3CCCC3)nc2c1` [Compound 20, 1-cyclopentyl-5-(5-methyl-1H-benzo[d]imidazol-2-yl)-1H-pyrrole-3-carboxamide] yielded an IC50 of 500 to 1000 nM.

Compound `Cc1ccc2[nH]c(-c3ccc(C(N)=O)n3C3CCCC3)nc2c1` [Compound 24, 1-cyclopentyl-5-(5-methyl-1H-1,3-benzodiazol-2-yl)pyrrole-2-carboxamide] has an IC50 of over 1000 nM.

For `O=C1OCC(c2nc3cc(C(F)(F)F)ccc3[nH]2)=C1c1cccc(Cl)c1Cl` [Compound 25, 3-(2,3-Dichlorophenyl)-4-(5-(trifluoromethyl)-1H-benzo[d]imidazol-2-yl)furan-2(5H)-one], the IC50 was over 1000 nM.

`Cc1ccc2[nH]c(-n3[nH]c(=O)nc3-c3cccc(Cl)c3Cl)nc2c1` [Compound 26, 5-(2,3-dichlorophenyl)-1-(5-methyl-1H-benzo[d]imidazol-2-yl)-1,2-dihydro-3H-1,2,4-triazol-3-one] gave an IC50 of over 1000 nM.

Work on `Cc1ccc2[nH]c(-n3c(-c4cccc(Cl)c4Cl)noc3=O)nc2c1` [Compound 29, 3-(2,3-dichlorophenyl)-4-(5-methyl-1H-benzo[d]imidazol-2-yl)-1,2,4-oxadiazol-5 (4H)-one] yielded an IC50 of over 1000 nM.

Work on `O=c1[nH]nc(-c2cccc(Cl)c2Cl)n1-c1nc2cc(C(F)(F)F)ccc2[nH]1` [Compound 30, 3-(2,3-Dichlorophenyl)-4-[5-(trifluoromethyl)-1H-benzimidazol-2-yl]-1H-1,2,4-triazol-5-one] yielded an IC50 of over 1000 nM.

With `Cc1ccc2[nH]c(-n3c(-c4cccc(Cl)c4Cl)n[nH]c3=O)nc2c1` [Compound 31, 5-(2,3-dichlorophenyl)-4-(5-methyl-1H-benzo[d]imidazol-2-yl)-2,4-dihydro-3H-1,2,4-triazol-3-one] the IC50 was over 1000 nM.

In the case of `O=c1onc(-c2cccc(Cl)c2Cl)n1-c1nc2cc(C(F)(F)F)ccc2[nH]1` [Compound 32], the IC50 is reported as over 1000 nM.

`Cc1ccc2[nH]c(-c3[nH]nnc3C3CCCC3)nc2c1` [Compound 33, 2-(4-cyclopentyl-1H-1,2,3-triazol-5-yl)-5-methyl-1H-benzo[d]imidazole] showed an IC50 of over 1000 nM.

`O=c1[nH]nc(-c2nc3cc(C(F)(F)F)ccc3[nH]2)n1-c1cccc(Cl)c1Cl` [Compound 36, 4-(2,3-dichlorophenyl)-5-(5-(trifluoromethyl)-1H-benzo[d]imidazol-2-yl)-2,4-dihydro-3H-1,2,4-triazol-3-one] gave an IC50 of 100 to 500 nM.

`N#Cc1c(-n2c(-c3cccc(Cl)c3Cl)n[nH]c2=O)[nH]c2ccc(C(F)(F)F)cc12` [Compound 41, 2-(3-(2,3-dichlorophenyl)-5-oxo-1,5-dihydro-4H-1,2,4-triazol-4-yl)-5-(trifluoromethyl)-1H-indole-3-carbonitrile] gave an IC50 of over 1000 nM.

With `Clc1cccc(-n2cnnc2-c2nc3cc(Br)ccc3[nH]2)c1Cl` [Compound 49, 5-bromo-2-(4-(2,3-dichlorophenyl)-4H-1,2,4-triazol-3-yl)-1H-benzo[d]imidazole] the IC50 was at most 100 nM.

`Cc1c(Cl)cncc1-n1cnnc1-c1nc2cc(C(F)(F)F)ccc2[nH]1` [Compound 58] was tested, and the IC50 was at most 100 nM.

Work on `Cc1nsc(-n2cnnc2-c2nc3cc(C(F)(F)F)ccc3[nH]2)c1Cl` [Compound 69] yielded an IC50 of 100 to 500 nM.

With `NC(=O)c1nnc(-c2nc3cc(C(F)(F)F)ccc3[nH]2)n1-c1cccc(Cl)c1Cl` [Compound 77] the IC50 was 100 to 500 nM.

In the case of `Cn1cc(-c2nc(Cl)c(Cl)s2)c(-c2nc3cc(C(F)(F)F)ccc3[nH]2)cc1=O` [Compound 97], the IC50 is reported as over 1000 nM.

In the case of `CSc1nnc(-c2nc3cc(C(F)(F)F)ccc3[nH]2)n1-c1cccc(Cl)c1Cl` [Compound 116], the IC50 is reported as 100 to 500 nM.

`FC(F)(F)c1ccc2[nH]c(-c3nnc(OC4CSC4)n3-c3cccc(Cl)c3Cl)nc2c1` [Compound 131] was tested, and the IC50 was over 1000 nM.

For `Clc1cccc(-n2cnnc2-c2nc3cc(C4CCCO4)ccc3[nH]2)c1Cl` (stereo not shown) [Compound 136, 2-(4-(2,3-dichlorophenyl)-4H-1,2,4-triazol-3-yl)-5-(tetrahydrofuran-2-yl)-1H-benzo[d]imidazole], the IC50 was at most 100 nM.

In the case of `CS(=O)(=O)CCc1nnc(-c2nc3cc(C(F)(F)F)ccc3[nH]2)n1-c1cccc(Cl)c1Cl` [Compound 138, 2-(4-(2,3-dichlorophenyl)-5-(2-(methylsulfonyl)ethyl)-4H-1,2,4-triazol-3-yl)-5-(trifluoromethyl)-1H-benzo[d]imidazole], the IC50 is reported as at most 100 nM.

`CS(=O)(=O)NCc1nnc(-c2nc3cc(C(F)(F)F)ccc3[nH]2)n1-c1cccc(Cl)c1Cl` [Compound 139, N-((4-(2,3-dichlorophenyl)-5-(5-(trifluoromethyl)-1H-benzo[d]imidazol-2-yl)-4H-1,2,4-triazol-3-yl)methyl)methanesulfonamide] was tested, and the IC50 was at most 100 nM.

`CC(O)C(C)(C)c1ccc2[nH]c(-c3nncn3-c3cccc(Cl)c3Cl)nc2c1` (stereo not shown) [Compound 140, 3-(2-(4-(2,3-dichlorophenyl)-4H-1,2,4-triazol-3-yl)-1H-benzo[d]imidazol-5-yl)-3-methylbutan-2-ol] showed an IC50 of at most 100 nM.

`FC(F)(F)c1cc2nc(-c3nncn3-c3cccc(Cl)c3Cl)[nH]c2cn1` [Compound 142, 2-(4-(2,3-dichlorophenyl)-4H-1,2,4-triazol-3-yl)-6-(trifluoromethyl)-3H-imidazo[4,5-c]pyridine] gave an IC50 of over 1000 nM.

Work on `CNC(=O)Cc1nnc(-c2nc3cc(C(F)(F)F)ccc3[nH]2)n1-c1cccc(Cl)c1Cl` [Compound 143, 2-(4-(2,3-Dichlorophenyl)-5-(5-(trifluoromethyl)-1H-benzo[d]imidazol-2-yl)-4H-1,2,4-triazol-3-yl)-N-methylacetamide] yielded an IC50 of at most 100 nM.

With `OC1CN(Cc2nnc(-c3nc4cc(C(F)(F)F)ccc4[nH]3)n2-c2cccc(Cl)c2Cl)C1` [Compound 144, 1-((4-(2,3-dichlorophenyl)-5-(5-(trifluoromethyl)-1H-benzo[d]imidazol-2-yl)-4H-1,2,4-triazol-3-yl)methyl)azetidin-3-ol] the IC50 was at most 100 nM.

`CCc1nnc(-c2nc3cc(C(F)(F)F)ccc3[nH]2)n1-c1cccc(Cl)c1Cl` [Compound 145, 2-(4-(2,3-dichlorophenyl)-5-ethyl-4H-1,2,4-triazol-3-yl)-5-(trifluoromethyl)-1H-benzo[d]imidazole] was tested, and the IC50 was at most 100 nM.

`CC(C)(C)c1ccc2[nH]c(-c3nncn3-c3nc(O)ccc3Cl)nc2c1` [Compound 148, 6-(3-(5-(tert-butyl)-1H-benzo[d]imidazol-2-yl)-4H-1,2,4-triazol-4-yl)-5-chloropyridin-2(1H)-one] gave an IC50 of at most 100 nM.

Compound `FC(F)(F)c1ccc2[nH]c(-c3nncn3-c3c(Cl)cccc3Cl)nc2c1` [Compound 149, 2-(4-(2,6-dichlorophenyl)-4H-1,2,4-triazol-3-yl)-5-(trifluoromethyl)-1H-benzo[d]imidazole] has an IC50 of at most 100 nM.

`COC(C)(c1ccc2[nH]c(-c3nncn3-c3ccc(F)c(F)c3Cl)nc2c1)C1COC1` (stereo not shown) [Compound 150, 2-(4-(2-chloro-3,4-difluorophenyl)-4H-1,2,4-triazol-3-yl)-5-(1-methoxy-1-(oxetan-3-yl)ethyl)-1H-benzo[d]imidazole] showed an IC50 of 100 to 500 nM.

`CCC(O)(CC)c1ccc2[nH]c(-c3nncn3-c3ccc(F)c(F)c3Cl)nc2c1` [Compound 151, 3-(2-(4-(2-chloro-3,4-difluorophenyl)-4H-1,2,4-triazol-3-yl)-1H-benzo[d]imidazol-5-yl)pentan-3-ol] gave an IC50 of at most 100 nM.
